In paper PMC7556697 (ACS chemical biology, 2020):

Molecular target: NRAS (Homo sapiens, UniProt P01111, Q61R)
Test: acyl-resin assisted capture
Assay type: cell-based

Work on C8 alkyl cysteine [compound 1] yielded an IC50 of 7 µM.
